The values below come from US7326825B2, “Methods of ungulate nuclear transfer” (Roslin Institute (Edinburgh), priority 1995, dated 2008).

Experiment [1] has as its system ovine oocytes. In words: Nuclei formation upon activation of reconstructed ovine oocytes matured in vivo. The experiment is classed as cell-based. To be noted: donor cells introduced in the absence of activation. The method, then: Similar observations to those in Example 1 have also been made in ovine oocytes which have been matured in vivo. Freshly ovulated oocytes can be retrieved by flushing from the oviducts of superstimulated ewes 24 hours after prostaglandin treatment. The use of calcium magnesium free PBS/1.0% FCS as a flushing medium prevents oocyte activation. Oocytes can be enucleated in calcium free medium and donor cells introduced as above in the absence of activation. No organised spindle is observed, multiple nuclei are formed upon subsequent activation and this may be suppressed by nocodazole treatment.

For experiment [2], the system named is enucleated oocytes fused to primary bovine fibroblasts. The experiment in a line: Pronuclear formation in enucleated oocytes fused to primary bovine fibroblasts and subsequently activated. The class given is cell-based. More on the design: percentage of activated oocytes containing 1 PN / percentage of activated oocytes containing 2 PN / percentage of activated oocytes containing 3 PN / percentage of activated oocytes containing 4 PN / percentage of activated oocytes containing >4 PN: concentration or dose not given beside the values.

Setting [3] is: nocodazole 1 hour prior to and 6 hours following activation, fused 24 hpm, activated 42 hpm, scored 12 hours post activation.

`COC(=O)Nc1nc2ccc(C(=O)c3cccs3)cc2[nH]1` [nocodazole]: the “formation of multiple nuclei upon subsequent activation” value in experiment [1] is reported as “suppressed”. Moreover, in experiment [2] (incubation of activated oocytes for 5 hours, 1 hour prior to and following the activation stimulus), the formation of micronuclei result is recorded as “prevents the formation of micronuclei”. Further, in experiment [2] (setting [3]), the “percentage of activated oocytes containing 1 PN” value stood at 100%, the “percentage of activated oocytes containing 2 PN” value worked out at 0%, the “percentage of activated oocytes containing 3 PN” value came out at 0% and the “percentage of activated oocytes containing 4 PN” value is given as 0%. Further, the “percentage of activated oocytes containing >4 PN” value in experiment [2] (setting [3]) is listed as 0%.
